≈ marks a conversion by molar mass, not a printed value.

Series [1] deals with PER-producing P. aeruginosa clinical isolates. Kind of series: microbe, parasite or virus in culture. Format: cell-based, Pseudomonas aeruginosa.
Series [2] deals with PAO1 transconjugants carrying blaPER-1 plasmids. Kind of series: Broth microdilution MIC, transconjugants and recipient PAO1-Rrif. Format: cell-based. To be noted: Pseudomonas aeruginosa. Background: In broth dilution the organism is exposed to a series of concentrations in liquid medium.
The next series has as its system Recombinant PAO1 strains. Kind of series: Broth microdilution MIC, recombinant PAO1 strains carrying blaPER. Type of series: cell-based. To be noted: Pseudomonas aeruginosa, PAO1.
The target of another series is T1, PER-1 (Pseudomonas aeruginosa, UniProt P37321).
T1 sequence (P37321 27-308): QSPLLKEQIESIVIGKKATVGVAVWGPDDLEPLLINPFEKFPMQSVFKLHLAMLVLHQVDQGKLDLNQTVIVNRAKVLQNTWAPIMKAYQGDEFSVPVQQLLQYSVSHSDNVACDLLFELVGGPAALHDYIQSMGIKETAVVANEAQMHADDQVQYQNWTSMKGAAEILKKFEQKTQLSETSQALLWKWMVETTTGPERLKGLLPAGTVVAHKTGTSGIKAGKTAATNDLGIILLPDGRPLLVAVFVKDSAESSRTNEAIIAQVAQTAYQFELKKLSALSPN
Kind of series: Steady-state enzyme kinetics, purified PER-1. Format: biochemical.

Another series deals with T2, PER-4 (Pseudomonas aeruginosa, UniProt P37321, S135T).
T2 sequence (P37321 27-308 S135T): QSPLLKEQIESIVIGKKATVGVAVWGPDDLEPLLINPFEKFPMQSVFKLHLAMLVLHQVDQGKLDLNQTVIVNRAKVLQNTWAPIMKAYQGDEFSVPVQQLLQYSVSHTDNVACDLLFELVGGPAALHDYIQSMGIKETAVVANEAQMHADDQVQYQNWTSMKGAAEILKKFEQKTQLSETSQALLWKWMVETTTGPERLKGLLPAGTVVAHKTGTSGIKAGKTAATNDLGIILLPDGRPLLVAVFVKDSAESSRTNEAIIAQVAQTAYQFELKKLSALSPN
Nature of the series: Steady-state enzyme kinetics, purified PER-4. Type of series: biochemical.

Substrate in series [3]: CC(C)(O/N=C(\C(=O)N[C@@H]1C(=O)N2C(C(=O)[O-])=C(C[n+]3ccccc3)CS[C@H]12)c1csc(N)n1)C(=O)O
Kind of series: Steady-state enzyme kinetics, purified PER-1. Type of series: biochemical, Pseudomonas aeruginosa. As to conditions: other: PER-1, room temperature, 1×PBS pH 7.2.

Substrate in series [4]: O=C(Cc1cccs1)N[C@@H]1C(=O)N2C(C(=O)O)=C(/C=C/c3ccc([N+](=O)[O-])cc3[N+](=O)[O-])CS[C@H]12
Kind of series: Steady-state enzyme kinetics, purified PER-1. Format: biochemical, Pseudomonas aeruginosa. To be noted: other: PER-1, room temperature, 1×PBS pH 7.2.

As for `C[C@@H](O)[C@H]1C(=O)N2C(C(=O)O)=C(SCCN=CN)C[C@H]12` [IPM, imipenem], the MIC range in series [1] (56 PER-producing PA strains) was 0.5 to 64 µg/mL. Besides, in series [1] (56 PER-producing PA strains, share of isolates resistant), the “% resistance” value turned out to be 92.86%. This molecule gave an MIC50 in series [1] (Pseudomonas aeruginosa) of 16 µg/mL (≈ 53.4 µM). The same molecule returned an MIC90 in series [1] (Pseudomonas aeruginosa) of 32 µg/mL (≈ 107 µM). Moreover, the MIC turned out to be 16 µg/mL (≈ 53.4 µM) in series [1] (Pseudomonas aeruginosa, isolate PA268); 16 µg/mL (≈ 53.4 µM) in series [1] (Pseudomonas aeruginosa, isolate PA272); 16 µg/mL (≈ 53.4 µM) in series [1] (Pseudomonas aeruginosa, isolate PA282); 16 µg/mL (≈ 53.4 µM) in series [1] (Pseudomonas aeruginosa, isolate PA975); 32 µg/mL (≈ 107 µM) in series [1] (Pseudomonas aeruginosa, isolate PA1017); 32 µg/mL (≈ 107 µM) in series [1] (Pseudomonas aeruginosa, isolate PA1018). Moreover, the MIC turned out to be 2 µg/mL (≈ 6.68 µM) in series [2] (PAO1, transconjugant PAO1/pPA272); 32 µg/mL (≈ 107 µM) in series [2] (PAO1, transconjugant PAO1/pPA1018); 1 µg/mL in the series with Recombinant PAO1 strains. Besides, the imipenem hydrolysis activity entry at PER-1 (PER-1) and at PER-4 was “hardly any detectable” in each case.
In the case of `O=C(Cc1cccs1)N[C@@H]1C(=O)N2C(C(=O)O)=C(/C=C/c3ccc([N+](=O)[O-])cc3[N+](=O)[O-])CS[C@H]12` [Nitrocefin], the “fold lower nitrocefin hydrolysis activity of PER-1 than PER-4” value at PER-1 (PER-1 vs PER-4) is around 1.7 fold. Further, on PER-4 (room temperature, 1×PBS pH 7.2), the Km (usually the substrate concentration at which the rate is half of its maximum) was 18.5 µM; the kcat (commonly the number of substrate molecules converted per active site and unit of time at saturation) came to 224.03 s⁻¹.

B1: PER-1 (Pseudomonas aeruginosa) (protein)
chain: QSPLLKEQIESIVIGKKATVGVAVWGPDDLEPLLINPFEKFPMQSVFKLHLAMLVLHQVDQGKLDLNQTVIVNRAKVLQNTWAPIMKAYQGDEFSVPVQQLLQYSVSHSDNVACDLLFELVGGPAALHDYIQSMGIKETAVVANEAQMHADDQVQYQNWTSMKGAAEILKKFEQKTQLSETSQALLWKWMVETTTGPERLKGLLPAGTVVAHKTGTSGIKAGKTAATNDLGIILLPDGRPLLVAVFVKDSAESSRTNEAIIAQVAQTAYQFELKKLSALSPN
For B1, in series [3], the Km was determined as 668.75 µM and the kcat is 537 s⁻¹. For the same molecule, in series [4], the Km amounted to 72.92 µM and the kcat was 512 s⁻¹.

(Values after publication PMC10939098 (Emerging Microbes & Infections, 2024).)
